Data set [1] is described as follows: QWBA and plasma radioactivity after oral 14C-Vuti in rats. The data set is classed as in vivo, Sprague-Dawley rat. The following applies: abstract statement; species not stated there. Here is the method: Male 8-week-old Sprague Dawley rats (n = 5, 16 h fasted; Charles River Laboratories Japan Inc., Yokohama, Japan) were orally administered 10 mg/kg of ^14C-Vuti (equivalent to radioactivity of 3.7 MBq/kg, Glaceum Inc., Suwon, Korea). After 2, 6, and 24 h, each rat was euthanized by CO2 inhalation. The nasal cavity and anus were filled with 4% w/v sodium carboxymethyl cellulose, and the carcass was frozen in a dry ice-acetone mixture. […] The radioactivity was measured by the bio-imaging analyzer system (FUJIX-BAS2500, Fujifilm, Tokyo, Japan; resolution µm, gradation 256, sensitivity 10000, latitude 4), in which the radioactivity in organs was converted to the photo-stimulated luminescence per unit area (PSL/mm^2) minus the background radioactivity of the plastic standard samples. Tissue radioactivity in whole-body auto-radiograms was quantified by densitometry using an MCID image analysis software (v. 7.0, MCID Image Analysis Software Solutions for Life Sciences, Cambridge, UK). Radioactivity concentrations were expressed as ng equivalents of ^14C-Vuti per gram tissue (ng eq/g tissue). […]
For measuring the radioactive concentration in the plasma, blood (250 uL) was collected from the tail vein of the animals (n = 3) of the exact same conditions as the animals used for QWBA assay. […] Then the tissue to blood ratio was calculated. […]

The nature of data set [2]: Quantification of drug concentration in plasma and brain of mice (LC-MS/MS). Format: in vivo, C57BL/6J mice. The following applies: mouse. The procedure:
Male C57BL/6J mice (8 weeks old, n = 24, non-fasted; Charles River Japan (CRJ), OrientBio, Seongnam, Korea) were dosed with 50 mg/kg of Vuti once and sacrificed at 0, 1, 2, 4, 6, 8, 10, 24 h time point (n = 3 per time point). Their whole blood was collected via the vena cava in a heparin-coated syringe and their whole brain was collected after perfusion with 0.9% saline. Vuti was quantified in both plasma and brain samples using LC-MS/MS analysis. This study was performed in accordance with the Association for Assessment and Accreditation of Laboratory Animal Care International (AAALAC; Approval No. LCDI-2021-0027).
LC-MS/MS analysis to quantify Vuti used previously set conditions. Briefly, HPLC-ESI-MS/MS analyses were performed using a 1200 series HPLC system (Agilent Technologies, Wilmington, DE) coupled to 6490 Accurate-Mass Triple Quadrupole Mass Spectrometer (Agilent Technologies, Wilmington, DE). Mass detection was performed in the positive ion mode, and the column temperature was maintained at 40 °C using a thermostatically controlled column oven. The column used for the separation was Hypersil GOLD C18 column (2.1 × 100 mm ID; 1.9 μm, Thermo Science). The mobile phases consisted of 0.1% acetic acid in distilled water (solvent A) and 0.1% acetic acid in ACN: MeOH = 3:1 (v/v) (solvent B). The LC gradient was as follows: 0–3 min, B 20%; 3–5 min, B 20 − 80%; 5–8 min, B 80%; 8–10 min, B 80 − 20%; and 10–15 min, B 20%. The flow rate was 250 µL/ min, and the total run time was 15 min. For multiple reaction monitoring (MRM) analyses, the target transition used was 355.1/151.0 m/z for Vuti. The collision energy was 17 V and nitrogen was used as the desolvation gas at a flow rate of 11 L/min and at 300 °C. Skyline software (MacCoss Laboratory, University of Washington, Seattle, WA) was used to process the LC-MS/MS data.

Data set [3] has as its system panel of a total of 225 mammalian proteins. The experiment in a line: In vitro safety (off-target) screening panel. The conditions noted are these: 225 targets: ion channels, GPCR, nuclear receptors, kinases, enzymes, transporters; data not shown. The procedure: The overall safety of Vuti has been already established through human phase 1 clinical trial (NCT04732988, NCT04733001, NCT04703764). However, for its potential repositioning as a central nervous system (CNS)-targeting drug candidate, we performed a comprehensive neurotoxicity assessment of Vuti through in vitro safety screening. Interactions of Vuti were tested against an extensive panel of a total of 225 mammalian proteins, including ion channels, G-protein coupled receptors (GPCR), nuclear receptors, kinases, non-kinase enzymes, and drug transporters, cardiac function, and drug-drug interactions. Additionally, these also examined whether Vuti interacted with reported direct targets of glabridin [37], such as estrogen receptor, peroxisome proliferator-activated receptor gamma (PPARγ), and cyclooxygenase 2 (COX-2).

A further data set concerns Sprague-Dawley rats. As to the kind of experiment: Functional observational battery (FOB) evaluation. The data set is classed as in vivo, rat. The conditions noted are these: male SD rats, single oral 500, 1000, 2000 mg/kg; 0.5, 1, 3, 6, 24 h. The procedure: To further investigate the potential neurotoxicity of Vuti in vivo, a standard functional observational battery (FOB) evaluation was performed. Male Sprague-Dawley rats were administered single high doses of Vuti – 500, 1000, and 2000 mg/kg. Subsequently, two observers blindly scored the behavior of animals in the home cage, open field, hand-held, and sensory-motor function at time points of 0.5, 1, 3, 6, and 24 h.
Male 6-week-old Sprague-Dawley Rat was orally administered with 0, 500, 1000, or 2000 mg/kg of Vuti (n = 8 per group). Two observers performed blind observations following the standard guideline (3) at 0.5, 1-, 3-, 6-, and 24-hours post-dose on the basis of the pharmacokinetics parameters. […] NC = No change, NSC = No statistically significant change.

This note sets out measurements from paper PMC12535076, “Neurotherapeutic effects of Vutiglabridin as a Paraoxonase-2 modulator in preclinical models of Parkinson’s disease” (Molecular Neurodegeneration, 2025).

Read-outs that look alike come from different tables or passages of the source.

Regarding `CCOc1ccc(C2COc3c(ccc4c3CCC(C)(C)O4)C2)c(O)c1` (stereo not shown) [Vuti, Vutiglabridin], in data set [1], the “duration of presence in the brain” value is recorded as “over 24 h”. Also, the Kp at 6 h in data set [2] (male, C57BL/6J, brain / plasma, oral, single 50 mg/kg, at Tmax of 6 h, read-out: brain concentration relative to plasma) was determined as 2.7. For the same compound, the Kp in data set [2] (male, C57BL/6J, brain / plasma, single oral 50 mg/kg, read-out: brain relative to plasma by AUC24h) amounted to 2.6. For the same compound, the concentration at 6 h stood at 4030 ng/g in data set [2] (male, C57BL/6J, brain, single oral 50 mg/kg, at Tmax of 6 h, read-out: concentration in brain) and 1490 ng/mL in data set [2] (male, C57BL/6J, plasma, single oral 50 mg/kg, at Tmax of 6 h, read-out: concentration in plasma). Moreover, the time to peak (Tmax) in data set [2] (male, C57BL/6J, plasma, single oral 50 mg/kg) is 6 h. Also, the AUC(0-t) in data set [2] (male, C57BL/6J, plasma, single oral 50 mg/kg, read-out: AUC24h in plasma) is 16100 ng·h/mL. This compound showed an AUC24h in brain in data set [2] (single oral 50 mg/kg) of 42.5 µg·h/g. Moreover, in data set [3], the off-target interactions entry is given as “no significant unexpected targets”. In the data set on Sprague-Dawley rats, the “behaviors in FOB (home cage, open field, hand-held, sensory-motor function)” value is “did not induce statistically significant changes”.

As a reminder, the Tmax is the time from dosing to the highest level.
